Data from BigSolDB 2.1.

O=c1cc(-c2ccc(O)c(O)c2)oc2cc(O)cc(O)c12
solubility (mole fraction)
Conditions | 273.2 K | 283.2 K | 293.2 K | 303.2 K | 313.2 K | 323.2 K
in ethanol | 0.000755 | 0.00117 | 0.00174 | 0.00205 | 0.00271 | 0.00318
in water | 2.06e-07 | 2.72e-07 | 3.49e-07 | 4.68e-07 | 7.3e-07 | 9.48e-07
